In ChEMBL document CHEMBL5550164, “Enhancing anticancer treatment: Development of cRGD-Conjugated F-OH-Evo prodrugs for targeted delivery” (Bioorg Med Chem, 2024):
Blank lines part the entries; values can stand above or below the molecule they belong to. The source made the active and inactive calls. The rule behind the calls is not given here.

Assays:
A549 = test: Cytotoxicity against human A549 cells measured after 72 hrs by CCK8 assay; type: functional, cell-based; settings: A549, 72 h
HeLa = test: Cytotoxicity against human HeLa cells measured after 72 hrs by CCK8 assay; type: functional, cell-based
MCF7 = test: Cytotoxicity against human MCF7 cells measured after 72 hrs by CCK8 assay; type: functional, cell-based; settings: MCF7, 72 h
U-87 MG [1] = test: Cytotoxicity against human U87 cells measured after 72 hrs by CCK8 assay; type: functional, cell-based, U-87MG ATCC
U-87 MG [2] = test: Potency index ratio of 3-fluoro-10-hydroxy-Evodiamine IC50 to test compound IC50 for cytotoxicity against human U87 cells; type: functional, U-87MG ATCC
U-87 MG [3] = test: Inhibition of cell migration in human U87 cells at 25 nM incubated for 48 hrs by transwell assay relative to control; type: functional, U-87MG ATCC
U-87 MG [4] = test: Inhibition of colony formation in human U87 cells at 25 nM pretreated for 24 hrs followed by media replacement for every 3 days by crystal violet staining based assay; type: functional, cell-based; settings: U-87MG ATCC
[5] = molecular target: T1, DNA topoisomerase 1 (Homo sapiens) (UniProt P11387); test: Inhibition of topoisomerase 1 (unknown origin) mediated DNA relaxation using supercoiled pBR322 DNA as substrate incubated for 1 hr by EtBr staining based agarose gel electrophoresis method; settings: dose 500-1000 µM
T1 sequence (whole entry): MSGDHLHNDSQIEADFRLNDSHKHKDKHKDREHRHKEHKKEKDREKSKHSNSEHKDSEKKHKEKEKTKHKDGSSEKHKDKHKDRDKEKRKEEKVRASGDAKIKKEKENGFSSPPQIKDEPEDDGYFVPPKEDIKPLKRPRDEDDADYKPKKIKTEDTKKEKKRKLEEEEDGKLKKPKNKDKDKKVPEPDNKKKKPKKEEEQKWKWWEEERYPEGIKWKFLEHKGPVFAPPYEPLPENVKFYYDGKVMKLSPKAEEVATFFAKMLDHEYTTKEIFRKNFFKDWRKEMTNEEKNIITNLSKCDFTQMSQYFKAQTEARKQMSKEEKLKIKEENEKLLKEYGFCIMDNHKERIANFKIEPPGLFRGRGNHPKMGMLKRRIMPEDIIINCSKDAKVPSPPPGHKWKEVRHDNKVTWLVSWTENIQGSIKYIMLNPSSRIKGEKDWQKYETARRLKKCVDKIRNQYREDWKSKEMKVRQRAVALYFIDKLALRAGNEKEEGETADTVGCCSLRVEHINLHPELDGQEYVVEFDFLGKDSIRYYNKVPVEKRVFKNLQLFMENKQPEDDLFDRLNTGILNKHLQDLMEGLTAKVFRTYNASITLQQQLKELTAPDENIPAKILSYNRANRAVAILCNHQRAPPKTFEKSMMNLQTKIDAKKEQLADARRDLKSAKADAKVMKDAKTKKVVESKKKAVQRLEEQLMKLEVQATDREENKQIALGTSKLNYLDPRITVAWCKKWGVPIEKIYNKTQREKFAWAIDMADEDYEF

U-87 MG [6] = test: Induction of cell cycle arrest at G2 phase in human U87 cells at 25 nM incubated for 24 hrs by flow cytometry analysis; type: functional, U-87MG ATCC
[7] = Stability in serum (unknown origin) assessed as compound remaining after 180 mins by HPLC analysis; type: ADME, cell-free; settings: read-out: Stability
U-87 MG [8] = test: Inhibition of cell migration in human U87 cells at 25 nM after 16 hrs by scratch assay; type: functional, cell-based; settings: U-87MG ATCC
[9] = Drug uptake in human U87 cells at 20 nM by flow cytometry analysis; type: ADME, cell-based; settings: u-87mg atcc, 0.02 µM
[10] = Drug uptake in human MCF7 cells incubated for 24 hrs by confocal laser scanning microscopy; type: ADME, cell-based; settings: mcf7, 24 h
[11] = Drug uptake in human U87 cells by flow cytometry analysis; type: ADME, cell-based; settings: u-87mg atcc
[12] = Drug uptake in human U87 cells incubated for 24 hrs by confocal laser scanning microscopy; type: ADME, cell-based; settings: u-87mg atcc

SMILES: CN1c2ccc(F)cc2C(=O)N2CCc3c([nH]c4ccc(OC(=O)CCSSCCC(=O)NC[C@@H]5NC(=O)[C@H](Cc6ccccc6)NC(=O)[C@H](CC(=O)O)NC(=O)CNC(=O)[C@H](CCCNC(=N)N)NC5=O)cc34)C21 (stereo partly drawn)
IC50 (A549): > 0.5 µM | IC50 (HeLa): 0.283 µM | IC50 (MCF7): 0.138 µM | IC50 (U-87 MG [1]): 0.406 µM

inhibition [5]: Dose-Dependent Effect | remaining at 3 h [7]: 60%
SMILES: CN1c2ccc(F)cc2C(=O)N2CCc3c([nH]c4ccc(OC(=O)CSCC(=O)NCCC[C@@H]5NC(=O)[C@H](Cc6ccccc6)NC(=O)[C@H](CC(=O)O)NC(=O)CNC(=O)[C@H](CCCNC(=N)N)NC5=O)cc34)C21 (stereo partly drawn)
Ratio IC50 (U-87 MG [2]): 5 | IC50 (A549): 0.0457 µM | inhibition at 0.025 µM (U-87 MG [3]): 25.5% | inhibition (U-87 MG [4]): Active | Activity (U-87 MG [6]): >90% | IC50 (HeLa): 0.125 µM | IC50 (MCF7): 0.0832 µM | inhibition (U-87 MG [8]): Active | IC50 (U-87 MG [1]): 0.0299 µM

SMILES: CN1c2ccc(F)cc2C(=O)N2CCc3c([nH]c4ccc(OC(=O)CCCC(=O)NC[C@@H]5NC(=O)[C@H](Cc6ccccc6)NC(=O)[C@H](CC(=O)O)NC(=O)CNC(=O)[C@H](CCCNC(=N)N)NC5=O)cc34)C21 (stereo partly drawn)
IC50 (A549): 0.307 µM | IC50 (HeLa): 0.302 µM | IC50 (MCF7): 0.137 µM | IC50 (U-87 MG [1]): 0.285 µM

SMILES: CN1c2ccc(F)cc2C(=O)N2CCc3c([nH]c4ccc(OC(=O)CSCC(=O)NCC[C@@H]5NC(=O)[C@H](Cc6ccccc6)NC(=O)[C@H](CC(=O)O)NC(=O)CNC(=O)[C@H](CCCNC(=N)N)NC5=O)cc34)C21 (stereo partly drawn)
IC50 (A549): 0.0381 µM | IC50 (HeLa): 0.0537 µM | IC50 (MCF7): 0.0602 µM | IC50 (U-87 MG [1]): 0.053 µM

Drug uptake [9]: 44.8% | Drug uptake [10]: Not Active | Drug uptake [11]: Dose-Dependent Effect and Tde | Drug uptake [12]: Active
SMILES: CCN(CC)c1ccc2cc(C(=O)NCCCCCC(=O)NCCCCC(NC(=O)CSCC(=O)Oc3ccc4[nH]c5c(c4c3)CCN3C(=O)c4cc(F)ccc4N(C)C53)C(=O)NCCC[C@@H]3NC(=O)[C@H](Cc4ccccc4)NC(=O)[C@H](CC(=O)O)NC(=O)CNC(=O)[C@H](CCCNC(=N)N)NC3=O)c(=O)oc2c1 (stereo partly drawn)

SMILES: CN1c2ccc(F)cc2C(=O)N2CCc3c([nH]c4ccc(OC(=O)CCSSCCC(=O)NCCC[C@@H]5NC(=O)[C@H](Cc6ccccc6)NC(=O)[C@H](CC(=O)O)NC(=O)CNC(=O)[C@H](CCCNC(=N)N)NC5=O)cc34)C21 (stereo partly drawn)
IC50 (A549): > 0.5 µM | IC50 (HeLa): 0.322 µM | IC50 (MCF7): 0.205 µM | IC50 (U-87 MG [1]): > 0.5 µM

SMILES: CN1c2ccc(F)cc2C(=O)N2CCc3c([nH]c4ccc(OC(=O)CCSSCCC(=O)NCC[C@@H]5NC(=O)[C@H](Cc6ccccc6)NC(=O)[C@H](CC(=O)O)NC(=O)CNC(=O)[C@H](CCCNC(=N)N)NC5=O)cc34)C21 (stereo partly drawn)
IC50 (A549): > 0.5 µM | IC50 (HeLa): > 0.5 µM | IC50 (MCF7): 0.164 µM | IC50 (U-87 MG [1]): 0.247 µM

SMILES: CN1c2ccc(F)cc2C(=O)N2CCc3c([nH]c4ccc(OC(=O)CCCC(=O)NCCC[C@@H]5NC(=O)[C@H](Cc6ccccc6)NC(=O)[C@H](CC(=O)O)NC(=O)CNC(=O)[C@H](CCCNC(=N)N)NC5=O)cc34)C21 (stereo partly drawn)
IC50 (A549): 0.46 µM | IC50 (HeLa): 0.324 µM | IC50 (MCF7): 0.0922 µM | IC50 (U-87 MG [1]): > 0.5 µM

SMILES: CN1c2ccc(F)cc2C(=O)N2CCc3c([nH]c4ccc(OC(=O)CCCC(=O)NCCCC[C@@H]5NC(=O)[C@H](Cc6ccccc6)NC(=O)[C@H](CC(=O)O)NC(=O)CNC(=O)[C@H](CCCNC(=N)N)NC5=O)cc34)C21 (stereo partly drawn)
IC50 (A549): 0.479 µM | IC50 (HeLa): 0.359 µM | IC50 (MCF7): 0.0698 µM | IC50 (U-87 MG [1]): 0.287 µM

SMILES: CN1c2ccc(F)cc2C(=O)N2CCc3c([nH]c4ccc(OC(=O)CCSSCCC(=O)NCCCC[C@@H]5NC(=O)[C@H](Cc6ccccc6)NC(=O)[C@H](CC(=O)O)NC(=O)CNC(=O)[C@H](CCCNC(=N)N)NC5=O)cc34)C21 (stereo partly drawn)
IC50 (A549): 0.387 µM | IC50 (HeLa): 0.197 µM | IC50 (MCF7): 0.163 µM | IC50 (U-87 MG [1]): 0.458 µM

SMILES: CN1c2ccc(F)cc2C(=O)N2CCc3c([nH]c4ccc(O)cc34)[C@H]21
IC50 (A549): 0.0224 µM | IC50 (HeLa): 0.0934 µM | IC50 (MCF7): 0.0052 µM | IC50 (U-87 MG [1]): 0.139 µM

SMILES: CN1c2ccc(F)cc2C(=O)N2CCc3c([nH]c4ccc(OC(=O)CSCC(=O)NCCCC[C@@H]5NC(=O)[C@H](Cc6ccccc6)NC(=O)[C@H](CC(=O)O)NC(=O)CNC(=O)[C@H](CCCNC(=N)N)NC5=O)cc34)C21 (stereo partly drawn)
IC50 (A549): 0.0541 µM | IC50 (HeLa): 0.202 µM | IC50 (MCF7): 0.109 µM | IC50 (U-87 MG [1]): 0.0836 µM

SMILES: CN1c2ccc(F)cc2C(=O)N2CCc3c([nH]c4ccc(OC(=O)CCCC(=O)NCC[C@@H]5NC(=O)[C@H](Cc6ccccc6)NC(=O)[C@H](CC(=O)O)NC(=O)CNC(=O)[C@H](CCCNC(=N)N)NC5=O)cc34)C21 (stereo partly drawn)
IC50 (A549): 0.344 µM | IC50 (HeLa): 0.305 µM | IC50 (MCF7): 0.0704 µM | IC50 (U-87 MG [1]): 0.144 µM

SMILES: CN1c2ccc(F)cc2C(=O)N2CCc3c([nH]c4ccc(OC(=O)CSCC(=O)NC[C@@H]5NC(=O)[C@H](Cc6ccccc6)NC(=O)[C@H](CC(=O)O)NC(=O)CNC(=O)[C@H](CCCNC(=N)N)NC5=O)cc34)C21 (stereo partly drawn)
IC50 (A549): 0.0515 µM | IC50 (HeLa): 0.0748 µM | IC50 (MCF7): 0.0306 µM | IC50 (U-87 MG [1]): 0.13 µM
